Assay results published in patent publication US9617197B2, “Compositions and methods for treating inflammatory diseases” (University of Virginia Patent Foundation, priority 2010, dated 2017).

Assays:
[1] = molecular target: T1, human recombinant LTA4H enzyme (LTA4H AP activity) (Homo sapiens, UniProt P09960); details: Jiang et al. (2008); cited from earlier work
T1 sequence (P09960 1-611): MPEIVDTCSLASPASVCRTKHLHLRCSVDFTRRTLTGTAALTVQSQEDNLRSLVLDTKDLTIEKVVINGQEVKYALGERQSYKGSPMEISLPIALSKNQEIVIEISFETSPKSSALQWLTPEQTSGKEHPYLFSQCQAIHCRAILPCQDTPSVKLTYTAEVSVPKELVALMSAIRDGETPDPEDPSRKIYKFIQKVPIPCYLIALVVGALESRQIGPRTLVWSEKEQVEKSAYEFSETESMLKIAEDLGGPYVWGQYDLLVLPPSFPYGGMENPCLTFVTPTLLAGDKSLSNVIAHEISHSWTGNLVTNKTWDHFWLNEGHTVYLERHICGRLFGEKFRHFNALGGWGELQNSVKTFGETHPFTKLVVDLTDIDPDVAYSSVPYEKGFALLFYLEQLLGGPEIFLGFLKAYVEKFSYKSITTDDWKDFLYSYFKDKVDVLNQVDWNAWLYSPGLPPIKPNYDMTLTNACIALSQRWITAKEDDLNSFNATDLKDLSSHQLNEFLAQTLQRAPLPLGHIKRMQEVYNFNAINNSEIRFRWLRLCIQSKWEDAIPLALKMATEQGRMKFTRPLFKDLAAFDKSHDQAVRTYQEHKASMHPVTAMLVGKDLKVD

[2] = Chemical stability in pH 6.7 buffer; assay type: physicochemical
[3] = Toxicity in murine pre-clinical models; assay type: in vivo
[4] = Encapsulation and equilibrium solubility test (HPLC); assay type: physicochemical
Description: To 5.3 mg (1.0 equivalent) of MDM was added 160.0 mg (4.0 equivalents) of CDX followed by 4.8 mL of water. […] The homogeneity of the solution was analyzed by HPLC.
Solubility measurement. […] Method: isocratic 80:20 acetonitrile-water at 1.0 mL/min, injection volume=5 μL, monitoring at λ=250 nm.
The method was carried out above with phosphate buffer saline (PBS, Ampresco, 20× concentrate, pH7.5; 500 μL of PBS concentrate was added to 9500 μL of water). To 6.0 mg (1.0 equivalents) of MDM was added 180.0 mg (4.0 equivalents) of CDX followed by 5.8 mL of water. […] The homogeneity of the solution was analyzed by HPLC.
The method was carried out as above. To 2.4 mg (1.0 equivalents) of MDM was added 0.035 g (2.0 equivalents) of CDX followed by 2.4 mL of PBS solution. […] The homogeneity of the solution was analyzed by HPLC.

[5] = molecular target: T1, human recombinant LTA4H enzyme (LTA4H AP activity); test: In vitro aminopeptidase activity assay; assay type: biochemical; details: recombinant LTA4H + Ala-pNA; 500 μM, 10 μM, 5 μM, 100 nM; FIG. 2
Description: FIG. 2. In vitro aminopeptidase activity assay. The peptidase activity of compounds was determined following the method of Jiang and co-workers (2008). […] No Enzyme=buffer. Enzy=buffer+recombinant LTA4H. 500 μM, 10 μM, 5 μM, and 100 nM=buffer+recombinant LTA4H+Ala-pNA+MDM.
FIG. 7. Biological activities of 2-hydroxypropyl-β-cyclodextrin encapsulated 4-methoxydiphenylmethane (“CDX-MDM”). […] No Enzyme=buffer. 0 M=buffer+recombinant LTA4H+Ala-pNA+no MDM. 500 μM, 10 μM, 5 μM, and 100 nM=buffer+recombinant LTA4H+Ala-pNA+MDM (500 μM, 10 μM, 5 μM, or100 nM).
(§1) In order to establish the biological roles of LTA4H AP activity in the pathogenesis of pulmonary emphysema, wild type mice were exposed to porcine elastase via the intra-nasal route and then treated with one LTA4H AP activity augmentor (compound 66, MDM), a LTA4H AP activity inhibitor (compound 67, PDM), or vehicle (peanut oil). Synthesis of MDM was accomplished by treatment of 4-benzyl phenol in dimethylformamide solvent with potassium hydroxide followed by methyl iodide (FIG. 1). Synthesis of compound PDM was accomplished by treatment of 4-benzyl phenol in dimethylformamide solvent with potassium hydroxide followed by butyl iodide (FIG. 1). The peptidase activity of the compound was determined following the method of Jiang and co-workers (2008).

Bioavailability in mice = assay type: in vivo
[6] = system: elastase induced murine pulmonary emphysema; test: Elastase-induced murine pulmonary emphysema model; assay type: in vivo, mice; details: for pre mortem lung compliance (Flexivent): 4 weeks after intra-nasal elastase, drug intra-peritoneal in peanut oil, FIG. 3; for severity of pulmonary emphysema: vs vehicle treated control animals
Description: To investigate the role that LTA4H plays in the pathogenesis of human diseases, murine models of elastase-induced pulmonary emphysema (Example 1) and LPS-induced acute lung injury (Example 3) were tested. In order to establish the elastase-dose dependent severity of murine pulmonary emphysema, increasing doses of porcine elastase were instilled into murine lungs of 129J background via the intra-nasal route. Four weeks after elastase was instilled, mouse lungs were harvested en block, inflated with 1% low melting point agarose gel (LMPA) at 25 cm melted 1% LMPA pressure. Lungs were then fixed overnight in formaldehyde. […] This confirmed that intra-nasal elastase administration was able to induce pulmonary emphysema in a dose-dependent manner.
as §1
Elastase (0.75 μg elastase per gm mouse weight) was instilled via the intra-nasal route. After 4 weeks, mice were sedated, intubated, and ventilated with Sireq Flexivent to measure lung compliance pre mortem. It was understood that lungs with more severe emphysema would have lost more elasticity, and thus, their lung compliance would be greater when measured by a small animal ventilator (FIG. 3). Once lung compliance was measured, mice were euthanized. Lungs were harvested en block without damaging outer coverings. Once harvested, lungs were inflated with 1% low melting point agarose gel (LMPA) at 25 cm melted 1% LMPA gel pressure. Once inflated, the total lung volumes were measured by volume displacement technique (FIG. 4). It was understood that lungs with more severe emphysema would have lost more elasticity, and thus their lung volume would be greater after being inflated with a uniform pressure. After the total lung volume measurement, lungs were fixed in para-formaldehyde overnight. On the following day, whole lungs were photographed (FIG. 5). Lungs with more severe emphysema would have lost more elasticity, and thus their lungs would be larger after being fixed with para-formaldehyde. The lungs were then paraffin embedded, paraffin sections were H&E stained (FIG. 6A), and morphometry was performed by using NIH ImagePro software and custom written macro string (Shim et al., 2006; Shim et al., 2010; Zheng et al., 2000; Zu et al., 1999). Alveolar intercepts were calculated and averaged from at least 8 animals in each group to yield chord length of each group (FIG. 6B). It was understood that alveoli from lungs with more severe emphysema would be larger after losing more elasticity and thus their chord length of the alveoli would be longer.

SMILES | LTA4H AP activity in vitro [1] | chemical stability in pH 6.7 buffer [2] | mortality [3] | concentration in solution by standard curve ([4]; 1:2 MDM:CDX in PBS, calculated 5.04 mM) [µM] | fraction of the MDM in the homogeneous solution at equilibrium ([4]; 1:2 ratio of MDM:CDX in PBS) [%] | solubility with 2 equivalents of CDX ([4]; PBS solution) [µg/mL] | LTA4H AP activity [5] | bioavailability (Bioavailability in mice; encapsulated formulation with 2-hydroxypropyl-β-cyclodextrin, intra-nasal administration to mice) | bioavailability (Bioavailability in mice; intra-peritoneal injection of mice, MDM combined with peanut oil) | pre mortem lung compliance (Flexivent) [6] | post mortem total lung volume (volume displacement) ([6]; vs PDM or vehicle control, FIG. 4) | gross size of inflated whole lungs ([6]; vs PDM or vehicle control, FIG. 5) | lung histology chord length ([6]; vs drug 67 or vehicle (peanut oil), FIG. 6) | severity of pulmonary emphysema [6]
COc1ccc(Oc2ccccc2)cc1 [1-methoxy-4-phenoxybenzene] | upregulates | chemical instability | greater than 85% | – | – | – | – | – | – | – | – | – | – | –
COc1ccc(Cc2ccccc2)cc1 [MDM, 4-methoxydiphenylmethane] | – | stable | – | 2950 | 59 | 590 | augment | bioavailable | bioavailable | significantly lower lung compliance | much less emphysematous | much smaller | shorter | significantly less severe
CCCCCOc1ccc(Cc2ccccc2)cc1 [PDM, 4-pentoxydiphenylmethane] | – | – | – | – | – | – | decrease | – | – | high lung compliance similar to lungs treated with vehicle | – | – | – | deleterious outcomes
